Patent US8246966B2, “Trypanosome microsome system and uses thereof” (priority 2006, dated 2012)

Key:
[1] = test system: Bloodstream T. brucei CA427; experiment: Bloodstream T. brucei cell culture drug susceptibility (Example 4); type: cell-based, Trypanosoma brucei; details: cultured bloodstream T. brucei
Protocol: Cell Culture. Bloodstream T. brucei cell culture and drug susceptibility studies were performed as previously described. Bloodstream T. brucei CA427 were cultured in HMI-9 media (Hirumi and Hirumi, 1994, Parasitol Today; 10(2):80-4) to a density of 10^6 cells/ml. Cells were seeded (500 μl of 4×10^4 cells/ml) to a 24-well plate and exposed to MAL3-101, CAM741, and NFI028 at listed concentrations (see figure legends) or an equal volume of DMSO. Cells were incubated at 37° C. and counted after 24 and 48 hours, using a hemocytometer.

[2] = test system: T. brucei microsomes (TbRM); experiment: Post-translational import of VSG-11786 into TbRM with inhibitors (Example 4); type: biochemical, Trypanosoma brucei; details: 10 μM
Protocol: FIGS. 7A to 7C. […] VSG-11786 mRNA was translated in rabbit reticulocyte lysate in the absence or presence of T. brucei cytosol for 1 hour at 37° C., and then cycloheximide was added to stop protein synthesis. TbRM (1 equivalent) and MAL3-101 (10 μM), MAL3-51 (10 μM), or an equal volume of DMSO was added to the samples on ice, and the mixture was incubated at 37° C. for 1.5 hours for translocation of VSG-11786 into the microsomes. Reaction mixtures were treated with proteinase K (PK) for one hour on ice. Proteolysis was terminated with PMSF. Proteins were precipitated with ammonium sulfate, pelleted by centrifugation, resuspended in SDS-PAGE sample buffer, and resolved by Tris-Tricine SDS-PAGE. Gel images were obtained with a phosphorimager and analyzed with Quantity-One software. Reaction mixtures for odd numbered lanes contained TbRM, but not proteinase K; even numbered lanes contained TbRM and proteinase K. Brackets denote lanes that were compared to obtain percentage of VSG-11786 import values. FIG. 7B is a graphical representation of data from FIG. 7A. […] In FIG. 7C, the effect of MAL3-101 on T. brucei growth.
FIGS. 8A to 8D. Effects of NFI028 and CAM741 on import of VSG-11786 into T. brucei microsomes. […] VSG-11786 mRNA was translated in rabbit reticulocyte lysate in the presence of T. brucei cytosol for one hour at 37° C., and then protein synthesis was stopped by the addition of cycloheximide. […] Reaction mixtures were treated with proteinase K (PK) on ice for one hour. Proteolysis was terminated with PMSF. Proteins were precipitated with ammonium sulfate, pelleted, resuspended in SDS-PAGE sample buffer, and resolved by Tris-Tricine SDS-PAGE. Images of radiolabeled proteins were obtained with a phosphorimager and quantitated with Quantity-One software. Samples depicted in odd numbered lanes contained TbRM, but were not treated proteinase K. Reaction mixtures shown in even numbered lanes contained TbRM and were treated with proteinase K. Brackets denote lanes that were compared to each other in order to obtain percentage of VSG-11786 import values. FIG. 8B is a graphical representation of data from FIG. 8A.
FIGS. 9A to 9D. Effects of azide, AEE788, and valinomycin on VSG-11786 import into T. brucei microsomes. […] VSG-11786 mRNA was translated in rabbit reticulocyte lysate in the presence of T. brucei cytosol for one hour at 37° C. Cycloheximide was added to stop proteins synthesis. TbRM (1 equivalent) and sodium azide (8 μM), AEE788 (8 μM), an equal volume of microsome buffer (RMB) or DMSO was added to the samples on ice, and the mixtures were incubated at 37 C for 1.5 hours. Reaction mixtures were treated with proteinase K (PK) on ice for one hour. Proteolysis was terminated with PMSF. Proteins were precipitated with ammonium sulfate, pelleted, resuspended in SDS-PAGE sample buffer, and resolved by Tris-Tricine SDS-PAGE. Images of radiolabeled proteins were obtained with a phosphorimager and quantitated with Quantity-One software. Brackets show lanes that were compared to each other in order to obtain percentage of VSG-11786 imported into TbRM. Lanes 1, 3, 5, & 7 were treated with TbRM, but not proteinase K. Lanes 2, 4, 6, & 8 were treated with TbRM and proteinase K. FIG. 9B is a graphical representation of data from FIG. 9A. […] Reaction mixtures depicted in odd lanes contained TbRM, but were not treated with proteinase K; even lanes contained TbRM and were treated with proteinase K. FIG. 9D is a graphical representation of data from panel FIG. 9C.

Compound: CCCCCCN(C(=O)CCCCCN1C(=O)NC(c2ccc(-c3ccccc3)cc2)C(C(=O)OCc2ccccc2)=C1C)C(C(=O)NCCCC)c1ccc(OCC(=O)OC)c(C(=O)OC)c1 (stereo not shown) [MAL3-101]
- concentration killing all parasites [1]: 3 µM
- IC50 ([1]; read-out: IG50, T. brucei growth): 1500 nM
- reduction of VSG-11786 import into TbRM compared to DMSO control ([2]; absence of T. brucei cytosol): 54%
- VSG-11786 imported into TbRM ([2]; presence of T. brucei cytosol): 90%
